From patent US7781480B2, “Indole derivatives and their metal conjugates and uses thereof” (VLife Sciences Technologies Pvt. Ltd., priority 2007, dated 2010)

Assays:
HCT116 (colon cancer) = test: MTT cell growth inhibition assay, HCT116; format: cell-based; details: HCT116, 72 h; read-out: MTT Assay EC50 after 72 h
Experimental: (§1) COLO 357 cells (K-ras mutated pancreatic cancer) were seeded at a density of 3×10^3 cells per well in 96-well microtiter culture plates. After overnight incubation, medium was removed and replaced with fresh medium containing different concentrations of compounds (0-100 μmol/L) diluted from a 10 mmol/L stock. On completion of 72 hours of incubation, 20 μL of 3-(4,5-dimethylthiazol-2-yl)-2,5-diphenyltetrazolium bromide (MTT) solution (5 mg/mL in PBS) were added to each well and incubated further for 2 hours. Upon termination, the supernatant was aspirated and the MTT formazan formed by metabolically viable cells was dissolved in 100 μL of isopropanol. The plates were mixed for 30 minutes on a gyratory shaker, and absorbance was measured at 595 nm using a plate reader (TECAN, Durham, N.C.). A similar protocol was used for BxPC3 (wild type K-Ras pancreatic cancer), PC3 (prostate cancer) and HCT (colon cancer) cell lines.
(§2) Cells were plated as described above and allowed to attach overnight. The cells were replaced with fresh medium containing 25 μmol/L of Compound 1 and Compound 2 for 72 hours. The effect of Compound 1 and Compound 2 pretreatment on cell viability was examined by the MTT assay method as described above.

[1] = tested on: BxPC3 (wild type K-Ras pancreatic cancer); test: MTT cell growth inhibition assay, BxPC3; format: cell-based; details: BxPC3, 72 h; read-out: MTT Assay EC50 after 72 h
Experimental: as §1, §2

COLO357 cells = test: Quantification of apoptosis by ELISA, COLO357; format: cell-based; details: COLO357, 72 hours; control 0.75
Experimental: (§3) The Cell Apoptosis ELISA Detection Kit (Roche, Palo Alto, Calif.) was used to detect apoptosis in COLO357 cells, with different treatments according to the manufacturer's protocol. Briefly, COLO357 cells were treated with […] of Compound 1 and Compound 2 for 72 hours. After treatment, the cytoplasmic histone DNA fragments from COLO 357 cells with different treatments were extracted and bound to immobilized anti-histone antibody.
(§4) Subsequently, the peroxidase-conjugated anti-DNA antibody was used for the detection of immobilized histone DNA fragments. After addition of substrate for peroxidase, the spectrophotometric absorbance of the samples was determined using ULTRA Multifunctional Microplate Reader (TECAN) at 405 nm. A similar protocol was used for BxPC3, PC3 and HCT116 cell lines.

PC3 = test: Quantification of apoptosis by ELISA, PC3; format: cell-based; details: PC3, 72 hours; control 0.50
Experimental: as §3, §4

HCT116 = test: Quantification of apoptosis by ELISA, HCT116; format: cell-based; details: HCT116, 72 hours; control 0.35
Experimental: as §3, §4

BxPC3 = test: Quantification of apoptosis by ELISA, BxPC3; format: cell-based; details: BxPC3, 25 mmol/L, 72 hours; control 0.50
Experimental: as §3, §4

[2] = tested on: COLO 357 cells (K-ras mutated pancreatic cancer); test: MTT cell growth inhibition assay, COLO357; format: cell-based; details: COLO357, 72 h; read-out: MTT Assay EC50 after 72 h
Experimental: as §1, §2

PC3 (prostate cancer) = test: MTT cell growth inhibition assay, PC3; format: cell-based; details: PC3, 72 h; read-out: MTT Assay EC50 after 72 h
Experimental: as §1, §2

Akt = Akt assay (ELISA based activity kit); format: biochemical
Experimental: Akt activity kit is an ELISA based activity kit that utilizes biotinylated peptide substrate (GRPRTSSFAEG) that is phosphorylated on second serine by Akt1, Akt2, Akt3, SGK and MSK1. Biotinylated Akt substrate and sample containing Akt are incubated in presence of ATP in the wells of a streptavidin coated 96-well plate, which allows for phosphorylation and substrate capture in a single step. The phosphorylated substrate is detected using phosphoserine detection antibody followed by HRP-antibody conjugate and color development with TMB substrate. Sensitivity is increased by addition of ELISA stop solution and relative activity is determined by reading dual absorbance at 450/540 nm or 450/595 nm. Inhibition profiles can be generated based on Akt activity in the presence and absence of test inhibitor(s).

Substance	EC50 (HCT116 (colon cancer)) [µM]	EC50 [1] [µM]	O.D. Of Histone/DNA at 405 nm (COLO357 cells)	O.D. Of Histone/DNA at 405 nm (PC3)	O.D. Of Histone/DNA at 405 nm (HCT116)	O.D. Of Histone/DNA at 405 nm (BxPC3)	EC50 [2] [µM]	EC50 (PC3 (prostate cancer)) [µM]	Akt inhibitory activity (Akt)
Cu(II) complex of 2-amino-3-[(Z)—N′-(1H-indol-3-ylmethylidene)hydrazinecarbonyl]-propanoic acid [Compound 1]	11.7	28.9	1.90	0.60	1.60	2.20	14.6	28.8	micromolar range
Cu(II) complex of (2Z)-2-(N-hydroxyimino)-N′-[(1Z)-1H-indol-3-ylmethylidene]-1,3-dioxobutanehydrazide [Compound 2]	14.1	18.9	2.00	1.90	1.75	1.80	14.3	16.6	micromolar range
